Assay: Solubility of L-carnitine at 20° C.
Format: physicochemical
Settings: in 100 g of solution
Description: This applies, furthermore, without taking into account the amount of water which is required for dissolving magnesium aspartate hydrochloride.

C[N+](C)(C)CC(O)CC(=O)[O-] [L-carnitine, 3-hydroxy-4-(trimethylammonio)butyro-betaine]
amount of L-carnitine that can be dissolved in 100 g of an aqueous solution which contains 51% by weight magnesium aspartate hydrochloride: up to 150 g
